Patent publication US12637658B2, “Method for gene transfer into gamma-delta type T cell” (Mie University, priority 2018, dated 2026)

Columns and labels:
[1] = test system: γδT cells; test: Comparison of compound 7 with zoledronate: proliferation and purity of γδT cells (IL-2 culture); format: cell-based, human; details: for effect on cell proliferation: Day 8, IL-2 300 U/mL
Procedure: Peripheral blood monocytes were collected from healthy subjects (n=8, HD1 to HD8) in two experiments (n=4 in each experiment). On Day 0, 1.5×10^6 of the collected peripheral blood monocytes were added to each well of 24-well plate. […] Then, on Day 1, IL-2 (300 U/mL) was added. The IL-2 is a cytokine used for the proliferation of the γδT cells according to the reports (non-patent documents 5 and 6). On Day 6, the cells of one well were diluted 2-fold into two wells. The number of cells was counted. On Day 7, the cells of two wells were diluted 2-fold into four wells, and IL-2 (300 U/mL) was further added. On Day 8, half-volume (about 3 mL) of the cells were diluted 6-fold to 18 mL, and cultured in a T75 flask. On Day 8 and Day 11, the number of cells was counted and cell purity was measured by flow cytometry analysis.

[2] = test system: γδT cells; test: Proliferation of γδT cells from peripheral blood monocytes with compound 7, IL-7 and IL-15; format: cell-based, human; details: for ratio of the γδT cells: Day 11
Procedure: The monocytes were prepared from peripheral blood of two healthy subjects by Ficoll. Personal agreement for the blood collection was achieved based on the research ethics code of the medical school of Mie University. The monocytes adjusted to 1.5×10^6 cells/mL with the culture solution of Yssel containing 10% human AB serum were cultured for one day in the presence of tetrakispivaloyloxymethyl 2-(thiazole-2-ylamino) ethylidene-1,1-bisphosphonate (compound 7, 1 μM), and then added with 25 ng/mL of IL-7 (Miltenyi Biotec, catalog number: 170-076-111) and 25 ng/mL of IL-15 (Miltenyi Biotec, catalog number: 170-076-114), and further cultured for 10 days. The frequency of the γδT cells in the monocyte population were analyzed by flow cytometry (FACSCANTO II, Becton Dickinson). As a result, the ratio of the γδT cells at the start of culture (Day 0) was 2.7% for donor 1 (HD1) and 1.7% for donor 2 (HD2), respectively. […] Peripheral blood of healthy human normally contains 1 to 3% of the γδT cells. However, approximately 1×10^8 of γδT cell populations could be prepared in high-purity from 1.5 mL of peripheral blood.
A culture solution of Yssel containing 10% human AB serum was used as the culture solution. As a result, rapid cell proliferation was observed from about Day 8 after the culture. The number of cells on Day 13 was 3×10^8, which was about 5000 times (FIG. 1B).
As comparison, IL-7 and IL-15 in the culture solution were replaced by IL-2 (PROLEUKIN, Chiron Therapeutics), and monocytes were cultured.

[3] = compound 7 1 μM vs zoledronate 5 μM
[4] = compound 7 1 μM, IL-7 and IL-15 25 ng/mL

| Compound | effect on cell proliferation [1, 3] | frequency of the γδT cells in lymphocyte fraction (P1) (Vd2/P1) ([1]; Day 8 and Day 11, compared to the zoledronate treatment group, t test) | cell proliferation-stimulating effect compared to zoledronate ([1]; Day 11, Experiment 1, subjects HD1 to HD4, compound 7 1 μM vs zoledronate 5 μM) | cell proliferation-stimulating effect compared to zoledronate ([1]; Day 11, Experiment 2, subject) | cell proliferation-stimulating effect compared to zoledronate ([1]; Day 11, Experiment 2, subject HD8) | cell proliferation-stimulating effect compared to zoledronate ([1]; Day 11, Experiment 2, subjects HD6 and HD7) | proliferation of γδT cells compared to zoledronate, average ([1]; Day 11, Experiments 1 and 2, n=8, p=0.008, t test) | frequency of the γδT cells in CD3 positive cells (Vd2/CD3) ([1]; compared to the zoledronate treatment group, t test) | start of rapid cell proliferation [2, 4] [days] | γδT cell populations prepared in high-purity from 1.5 mL of peripheral blood [2, 4] | ratio of the γδT cells ([2]; donor 1 (HD1), compound 7 1 μM, IL-7 and IL-15 25 ng/mL, 2.7% at Day 0) [%] | ratio of the γδT cells ([2]; donor 2 (HD2), compound 7 1 μM, IL-7 and IL-15 25 ng/mL, 1.7% at Day 0) [%] | number of cells on Day 13 ([2]; from 3×10^6 monocytes (3 mL peripheral blood), compound 7 1 μM, IL-7 and IL-15 25 ng/mL) | fold increase of cells on Day 13 ([2]; from 3×10^6 monocytes, compound 7 1 μM, IL-7 and IL-15 25 ng/mL) | effect of promoting cell proliferation by IL-7 and IL-15 on further addition of IL-2 ([2]; monocytes stimulated with compound 7) |
| --- | --- | --- | --- | --- | --- | --- | --- | --- | --- | --- | --- | --- | --- | --- | --- |
| CC(C)(C)C(=O)OCOP(=O)(OCOC(=O)C(C)(C)C)C(CNc1nccs1)P(=O)(OCOC(=O)C(C)(C)C)OCOC(=O)C(C)(C)C [compound 7, tetrakispivaloyloxymethyl 2-(thiazole-2-ylamino)ethylidene-1,1-bisphosphonate] | almost no difference | significantly higher | strongly recognized | the same level | weak | greater | significantly excellent | significantly higher | ~8 | approximately 1×10^8 | 97.1 | 94.5 | 3×10^8 | about 5000 times |  |
| O=P(O)(O)C(O)(Cn1ccnc1)P(=O)(O)O [zoledronate, reference compound] | almost no difference |  |  |  |  |  |  |  |  |  |  |  |  |  |  |
| IL-2: interleukin-2 (PROLEUKIN, Chiron Therapeutics), cytokine used for proliferation of γδT cells |  |  |  |  |  |  |  |  |  |  |  |  |  |  | not further increased |
